Laboratory results as given in ChEMBL document CHEMBL5634101, “Discovery of NLRP3 inhibitors using machine learning: Identification of a hit compound to treat NLRP3 activation-driven diseases” (Eur J Med Chem, 2023).

Columns and labels:
[1] = Stability in human liver microsomes assessed as intrinsic clearance at 1.5 uM measured upto 45 mins in presence of NADPH by LC-MS/MS analysis; format: ADME, Microsome; details: read-out: CLH
[2] = Stability in human liver microsomes assessed as half-life at 1.5 uM measured upto 45 mins in presence of NADPH by LC-MS/MS analysis; format: ADME, Microsome

CLint scaled at 1.5 µM [1]: 17.3 mL/min/kg
half-life at 1.5 µM [2]: 101 min
SMILES: O=C(c1ccc(F)cc1)C1CCN(CCn2c(=O)[nH]c3ccccc3c2=O)CC1 [KETANSERIN]
